Laboratory results taken from patent US6300331A, “Naphthalimidobenzamide derivatives” (Taiho Pharmaceutical Co., Ltd., priority 1998, dated 2001).
Where a name gives a salt, the structure may show the parent alone. Read-outs that look alike come from different tables or passages of the source.

Key:
[1] = test system: region abundant in adenine and thymine; assay: interaction with DNA region abundant in adenine and thymine; assay type: binding
Excerpt: (§1) The naphthalimidobenzamide derivatives (1) or salts thereof according to the present invention are compounds synthesized to have a high affinity with DNA and base sequence selectivity. As a result of various investigations, it has been confirmed that the compounds of the present invention each has a high affinity with DNA based on the results of various tests including a test using ethidium bromide displacement assay or the like. It has also been confirmed that they have stronger affinities with respective base sequence regions.

KB cells = assay: Cytotoxicity against KB cells (crystal violet dying method); assay type: cell-based; conditions: Homo sapiens, read-out: Cytotoxicity [IC50 (μM)]
Protocol: Test 1 Cytotoxicity against KB cells
The residue was re-suspended in an MEM medium containing 10% fetal bovine serum. Then, an equivalent amount of a 0.2% trypan blue solution was added to a portion of the cell suspension, followed by mixing. The number of living cells which had not been dyed with the trypan blue was counted by a hemocytometer and the suspension was diluted and adjusted with the above-described culture medium to give a cell concentration of 1×10^4 cells/ml. Each well of a 96-well plate was inoculated with a 100-μl portion of the resulting suspension, in other words, was inoculated to give a concentration of 1×10^3 cells/well.
To the cells cultured in a CO2 incubator for 24 hours after the inoculation was added 100 μl/well of a medicament solution, followed by culturing for 72 hours. To a control was added 100 μl of an MEM medium.
The cytotoxicity of the medicament was determined from a change in the number of the cells by using the crystal violet dying method.
After washing the plate with water, 100 μl/well of a 0.05% crystal violet solution dissolved in 20% methanol was added to dye the cells therewith for about 15 minutes. The plate was washed to remove the unbound crystal violet, followed by the addition of 100 μl/well of 0.05M NaH2 PO4 /ethanol (1:1 v/v), whereby the crystal violet bound to the cellular protein was extracted.

[2] = test system: region abundant in guanine and cytosine; assay: interaction with DNA region abundant in guanine and cytosine; assay type: binding
Excerpt: as §1

[3] = test system: human skin cancer strains LOX; assay: antitumor test in nude mouse subcutaneously transplanted with human skin cancer strains LOX; assay type: in vivo
[4] = test system: human gastric cancer strains AZ521; assay: antitumor test in nude mouse subcutaneously transplanted with human gastric cancer strains AZ521; assay type: in vivo
[5] = test system: human breast cancer strains MX1; assay: antitumor test in nude mouse subcutaneously transplanted with human breast cancer strains MX1; assay type: in vivo
[6] = test system: human pancreatic cancer strains PAN6; assay: antitumor test in nude mouse subcutaneously transplanted with human pancreatic cancer strains PAN6; assay type: in vivo
[7] = KB cells, 72 hours, 50% proliferation inhibition

Cn1cc(NC(=O)c2cc(NC=O)cn2C)cc1C(=O)NCCNCCNC(=O)c1cc(C(=O)NCCNCCNC(=O)c2cc(NC(=O)c3cc(NC=O)cn3C)cn2C)cc(N2C(=O)c3cccc4cc([N+](=O)[O-])cc(c34)C2=O)c1 [Example 30, 1,3-bis[N-[2-[[2-[4-(4-formamido-1-methylpyrrole-2-carbonylamino)-1-methylpyrrole-2-carbonylamino]ethyl]amino]ethyl]carbamoyl]-5-(3-nitro-1,8-naphthalimido)benzene dihydrochloride]
interaction with a region abundant in adenine and thymine [1]: strong interaction

O=C(NCCNCCN1C(=O)c2cccc3cc([N+](=O)[O-])cc(c23)C1=O)c1cc(C(=O)NCCNCCN2C(=O)c3cccc4cc([N+](=O)[O-])cc(c34)C2=O)cc(N2C(=O)c3cccc4cc([N+](=O)[O-])cc(c34)C2=O)c1 [Example 4, 1,3-bis[N-[2-[[2-(3-nitro-1,8-naphthalimido)ethyl]amino]ethyl]carbamoyl]-5-(3-nitro-1,8-naphthalimido)benzene dihydrochloride]
IC50 (KB cells; [7]): 0.048 µM | interaction with a region abundant in guanine and cytosine [2]: strong interaction

O=C(NCCNCCCN1C(=O)c2cccc3cc([N+](=O)[O-])cc(c23)C1=O)c1cccc(N2C(=O)c3cccc4cc([N+](=O)[O-])cc(c34)C2=O)c1 [Example 40 (A), 1-(3-nitro-1,8-naphthalimido)-3-[N-[2-[[3-(3-nitro-1,8-naphthalimido)propyl]amino]ethyl]carbamoyl]benzene hydrochloride]
IC50 (KB cells; [7]): 0.003 µM

CN(C)CCCNC(=O)c1cc(C(=O)NCCNCCN2C(=O)c3cccc4cc([N+](=O)[O-])cc(c34)C2=O)cc(N2C(=O)c3cccc4cc([N+](=O)[O-])cc(c34)C2=O)c1 [Example 41, 1-[N-(3-dimethylaminopropyl)carbamoyl]-3-(3-nitro-1,8-naphthalimido)-5-[N-[2-[[2-(3-nitro-1,8-naphthalimido)ethyl]amino]ethyl]carbamoyl]benzene hydrochloride]
IC50 (KB cells; [7]): 3.1 µM

O=C(NCCNCCn1c2ccccc2c2ccncc21)c1cc(C(=O)NCCNCCn2c3ccccc3c3ccncc32)cc(N2C(=O)c3cccc4cc([N+](=O)[O-])cc(c34)C2=O)c1 [Example 3, 1,3-bis[N-[2-[[2-(pyrido[3,4-b]indol-9-yl)ethyl]amino]ethyl]carbamoyl]-1-(3-nitro-1,8-naphthalimido)benzene tetratrifluoroacetate]
IC50 (KB cells; [7]): 2.6 µM

CN1CCN(C(=O)c2cc(C(=O)NCCNCCN3C(=O)c4cccc5cccc(c45)C3=O)cc(N3C(=O)c4cccc5cccc(c45)C3=O)c2)CC1 [Example 51, 1-(4-methylpiperazino)carbonyl-3-(1,8-naphthalimido)-5-[N-[2-[[2-(1,8-naphthalimido)ethyl]amino]ethyl]carbamoyl]benzene hydrochloride]
IC50 (KB cells; [7]): 0.025 µM

O=C(NCCNCCN1C(=O)c2cccc3c(Cl)ccc(c23)C1=O)c1cc(C(=O)NCCNCCN2C(=O)c3cccc4c(Cl)ccc(c34)C2=O)cc(N2C(=O)c3cccc4cccc(c34)C2=O)c1 [Example 9, 1,3-bis[N-[2-[[2-(4-chloro-1,8-naphthalimido)ethyl]amino]ethyl]carbamoyl]-5-(1,8-naphthalimido)benzene dihydrochloride]
IC50 (KB cells; [7]): 0.023 µM

O=C(NCCNCCNC(=O)c1ccnc2ccccc12)c1cc(C(=O)NCCNCCN2C(=O)c3cccc4cc([N+](=O)[O-])cc(c34)C2=O)cc(N2C(=O)c3cccc4cc([N+](=O)[O-])cc(c34)C2=O)c1 [Example 14, 1-(3-nitro-1,8-naphthalimido)-3-[N-[2-[[2-(3-nitro-1,8-naphthalimido)ethyl]amino]ethyl]carbamoyl]-5-[N-[2-[[2-(quinoline-4-carbonylamino)ethyl]amino]ethyl]carbamoyl]benzene trihydrochloride]
IC50 (KB cells; [7]): 1.3 µM

O=C(NCCNCCN1C(=O)c2cccc3cc([N+](=O)[O-])cc(c23)C1=O)c1cccc(N2C(=O)c3cccc4cc([N+](=O)[O-])cc(c34)C2=O)c1 [Example 39, 1-(3-nitro-1,8-naphthalimido)-3-[N-[2-[[2-(3-nitro-1,8-naphthalimido)ethyl]amino]ethyl]carbamoyl]benzene hydrochloride]
IC50 (KB cells; [7]): 0.0053 µM

O=C(NCCNCCN1C(=O)c2cccc3cc([N+](=O)[O-])cc(c23)C1=O)c1cc(C(=O)NCCN2CCCCC2)cc(N2C(=O)c3cccc4cc([N+](=O)[O-])cc(c34)C2=O)c1 [Example 46, 1-(3-nitro-1,8-naphthalimido)-3-[N-[2-[[2-(3-nitro-1,8-naphthalimido)ethyl]amino]ethyl]carbamoyl]-5-[N-(2-piperidinoethyl)carbamoyl]benzene hydrochloride]
inhibitory effects against tumor proliferation [3]: 96.2% | inhibitory effects against tumor proliferation [4]: 79.5% | IC50 (KB cells; KB, 72 h): 0.053 µM | inhibitory effects against tumor proliferation [5]: 71.8% | inhibitory effects against tumor proliferation [6]: 59.8%

CN1CCN(C(=O)c2cc(C(=O)NCCNCCN3C(=O)c4cccc5cc([N+](=O)[O-])cc(c45)C3=O)cc(N3C(=O)c4cccc5cc([N+](=O)[O-])cc(c45)C3=O)c2)CC1 [Example 49, 1-(4-methylpiperazino)carbonyl-3-(3-nitro-1,8-naphthalimido)-5-[N-[2-[[2-(3-nitro-1,8-naphthalimido)ethyl]amino]ethyl]carbamoyl]benzene hydrochloride]
IC50 (KB cells; [7]): 0.035 µM

O=C(NCCCNCCN1C(=O)c2cccc3cc([N+](=O)[O-])cc(c23)C1=O)c1cccc(N2C(=O)c3cccc4cc([N+](=O)[O-])cc(c34)C2=O)c1 [Example 40 (B), 1-(3-nitro-1,8-naphthalimido)-3-[N-[3-[[2-(3-nitro-1,8-naphthalimido)ethyl]amino]propyl]carbamoyl]benzene hydrochloride]
IC50 (KB cells; [7]): 0.00023 µM
